Patent US20250099420A1, “SMALL MOLECULE MODULATORS OF GPR139 COMPLEX” (University of Florida Research Foundation, Incorporated, priority 2022, published 2025)
Read-outs that look alike come from different tables or passages of the source.

Legend:
GPR139 = target: T1, GPR139 (Homo sapiens, UniProt Q6DWJ6); assay: GPR139 Agonist titration / agonist counterscreen assay (calcium detection, HEK-GPR139 cells); format: cell-based; parameters: expressed in transfected cells; host or cells: HEK Aequorin cells, Maxcyte transient transfection; conditions: GPR139 Agonist Activity; for Averaged Max % Response (±St. Dev.): activity relative to known control; for EC50: read-out: EC50
T1 sequence (Q6DWJ6 1-353): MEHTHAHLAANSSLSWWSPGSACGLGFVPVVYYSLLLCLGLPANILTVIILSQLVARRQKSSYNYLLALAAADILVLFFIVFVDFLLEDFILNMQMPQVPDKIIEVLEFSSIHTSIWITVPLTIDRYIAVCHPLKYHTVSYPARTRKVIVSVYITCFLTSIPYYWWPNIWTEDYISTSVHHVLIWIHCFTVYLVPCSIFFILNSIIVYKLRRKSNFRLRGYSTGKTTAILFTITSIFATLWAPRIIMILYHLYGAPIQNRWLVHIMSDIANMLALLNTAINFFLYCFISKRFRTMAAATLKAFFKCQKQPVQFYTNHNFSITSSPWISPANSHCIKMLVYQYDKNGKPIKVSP
Method: GPR activity was assessed using a calcium detection assay. […] Negative control samples were treated with DMSO. […] Intracellular calcium was measured using Calcium 5.

parental HEK cells = assay: HEK parental Agonist Counterscreen Assay (non-transfected cells); format: cell-based; conditions: for Averaged Max % Response (±St. Dev.): activity relative to known control
Excerpt: The high control for the agonist counterscreen was Forskolin not acetylcholine.

[1] = values printed in E-notation without unit
[2] = Homo sapiens, HEK293, HEK Agonist Activity, parental non-transfected HEK cells
[3] = Homo sapiens, HEK293, HEK Agonist Activity section of Table 4 (parental HEK counterscreen)
[4] = HEK Agonist Activity section of Table 4 (parental HEK counterscreen)

Row | SMILES | Averaged Max % Response (±St. Dev.) (GPR139) | Lipophilic Efficiency (logD) (GPR139; based on logD) | Lipophilic Efficiency (logP) (GPR139; based on logP) | Hill Slope (GPR139; fitted dose-response curve) | Efficiency Ligand (GPR139; ligand efficiency) | EC50 (GPR139; [1]) | Lipophilic Efficiency (logD) (parental HEK cells; HEK Agonist Activity) | Lipophilic Efficiency (logP) (parental HEK cells; HEK Agonist Activity) | Lipophilic Efficiency (logD) (parental HEK cells; HEK Agonist Activity section) | Lipophilic Efficiency (logP) (parental HEK cells; HEK Agonist Activity section) | Efficiency Ligand (GPR139) | Hill Slope (GPR139) | Lipophilic Efficiency (logD) (GPR139) | Lipophilic Efficiency (logP) (GPR139) | EC50 (GPR139; HEK-GPR139 cells) | Averaged Max % Response (±St. Dev.) (parental HEK cells; HEK Agonist Activity) | EC50 (parental HEK cells; [2]) | Averaged Max % Response (±St. Dev.) (parental HEK cells; HEK Agonist Activity section) | EC50 (parental HEK cells; [3]) | EC50 (parental HEK cells; [4])
1 | COc1ccc(C2(C)NC(=O)N(CC(=O)NCc3ccc(F)cc3)C2=O)cc1 (stereo not drawn) [SR-01000918720] | 107.14 ± 13.14% | 5.56 | 5.56 | 0.42 | 0.37 | 48.9 nM |  |  | 3.10 | 3.10 |  |  |  |  |  |  |  | 24.77 ± 3.77% | > 14100 nM | 
2 | Cc1cccc(NC(=O)NCCc2ccc3c(c2)CCCN3C)c1 [SR-01000923247] | 95.66 ± 12.25% | 3.21 | 3.21 | 0.45 | 0.43 | 37.1 nM | 0.63 | 0.63 |  |  |  |  |  |  |  | 20.62 ± 4.90% | > 14100 nM |  |  | 
3 | O=C(CSc1ccc(Cl)cc1)Nc1nnc(-c2ccco2)o1 [SR-01000021433] | 111.88 ± 11.27% | 4.59 | 4.59 | 0.56 | 0.45 | 71.8 nM |  |  | 2.29 | 2.29 |  |  |  |  |  |  |  | 27.04 ± 4.04% | > 14300 nM | 
4 | COc1cc(C(C)=O)ccc1OCC(=O)NC(C)CCc1ccccc1 (stereo not drawn) [SR-01000048295] | 102.89 ± 3.61% | 4.43 | 4.43 | 0.88 | 0.40 | 38.3 nM | 1.86 | 1.86 |  |  |  |  |  |  |  | 7.53 ± 4.49% | > 14300 nM |  |  | 
5 | C=CCC(O)(CC=C)C(C)NC(=O)CCC1(Cc2ccc3ccccc3c2)CCC(=O)N1 (stereo not drawn) [SR-01000190122] | 134.89 ± 17.50% | 3.22 | 3.22 | 0.52 | 0.30 | 161 nM |  |  | 1.27 | 1.27 |  |  |  |  |  |  |  | 0.66 ± 6.28% |  | > 14100 nM
6 | Cc1cccc(OCC(=O)NNC(=O)C(C)Oc2ccc(Cl)cc2Cl)c1 (stereo not drawn) [SR-01000318010] | 90.09 ± 14.61% | 3.32 | 3.28 | 1.08 | 0.38 | 103 nM |  |  | 1.19 | 1.15 |  |  |  |  |  |  |  | 12.20 ± 3.74% |  | > 14100 nM
7 | O=C(Cc1ccccc1)CC1C=CC2=C1c1ccccc1CC2 (stereo not drawn) [SR-01000134941] | 109.36 ± 34.06% | 4.30 | 4.30 | 0.39 | 0.39 |  |  |  | 2.40 | 2.40 |  |  |  |  |  |  |  | 10.65 ± 6.79% | > 14100 nM | 
8 | Cc1ccc(CN2CC34C=CC(O3)C(C(=O)NCCC3=CCCCC3)C4C2=O)cc1 (stereo not drawn) [SR-01000550322] | 86.57 ± 2.15% |  |  |  |  |  |  |  | 1.99 | 1.99 | 0.27 | 0.73 | 2.87 | 2.87 | 1800 nM |  |  | −6.25 ± 1.61% |  | > 13400 nM

Further lines, with some results ahead:

Row | Averaged Max % Response (±St. Dev.) (GPR139) | Lipophilic Efficiency (logD) (GPR139; based on logD) | Lipophilic Efficiency (logP) (GPR139; based on logP) | Hill Slope (GPR139; fitted dose-response curve) | Efficiency Ligand (GPR139; ligand efficiency) | EC50 (GPR139; [1]) | Lipophilic Efficiency (logD) (parental HEK cells; HEK Agonist Activity) | Lipophilic Efficiency (logP) (parental HEK cells; HEK Agonist Activity) | Lipophilic Efficiency (logD) (parental HEK cells; HEK Agonist Activity section) | Lipophilic Efficiency (logP) (parental HEK cells; HEK Agonist Activity section) | Efficiency Ligand (GPR139) | Hill Slope (GPR139) | Lipophilic Efficiency (logD) (GPR139) | Lipophilic Efficiency (logP) (GPR139) | EC50 (GPR139; HEK-GPR139 cells) | SMILES | Averaged Max % Response (±St. Dev.) (parental HEK cells; HEK Agonist Activity) | EC50 (parental HEK cells; [2]) | Averaged Max % Response (±St. Dev.) (parental HEK cells; HEK Agonist Activity section) | EC50 (parental HEK cells; [3]) | EC50 (parental HEK cells; [4])
9 | 95.61 ± 13.32% | 5.35 | 5.35 | 0.85 | 0.43 | 23.3 nM | 2.55 | 2.55 |  |  |  |  |  |  |  | CC1(c2ccc(Cl)cc2)NC(=O)N(CC(=O)NCc2cccs2)C1=O (stereo not drawn) [SR-01000058107] | 4.84 ± 7.51% | > 14900 nM |  |  | 
10 | 128.31 ± 15.25% | 3.75 | 3.51 | 0.74 | 0.36 | 58.8 nM |  |  | 1.34 | 1.10 |  |  |  |  |  | O=C(CN1CCN(C/C=C/c2ccccc2)CC1)NCCCc1ccccc1 [SR-01000062290] |  |  | 11.38 ± 4.42% | > 14900 nM | 
11 | 109.71 ± 13.62% | 5.84 | 4.48 | 0.17 | 0.31 | 27.1 nM | 3.12 | 1.76 |  |  |  |  |  |  |  | CCC1Cc2ccc(C)cc2CC1C(=O)Nc1ccc(-c2cn[nH]c2)cc1OCCN(C)C (stereo not drawn) [SR-00000007138] | 10.53 ± 4.93% | > 14100 nM |  |  | 
12 | 87.03 ± 9.26% |  |  |  |  |  |  |  | 2.52 | 2.52 | 0.31 | 0.84 | 3.64 | 3.64 | 1100 nM | CN(Cc1ccc[nH]1)C(=O)CN1C(=O)NC2(CCc3ccccc3C2)C1=O (stereo not drawn) [SR-01000068179] |  |  | 2.62 ± 3.03% | > 14700 nM | 
13 | 77.18 ± 14.00% |  |  |  |  |  |  |  | 0.91 | 0.91 | 0.38 | 1.01 | 2.24 | 2.24 | 651 nM | N#Cc1ccc(OC(=O)COc2cccc3ccccc23)cc1 [SR-01000005203] |  |  | 16.23 ± 3.90% | > 13900 nM | 
14 | 109.67 ± 8.84% | 4.91 | 4.91 | 0.80 | 0.40 | 9.7 nM | 1.73 | 1.73 |  |  |  |  |  |  |  | CC(NC(=O)CN1C(=O)c2cccc([N+](=O)[O-])c2C1=O)c1ccc(Cl)cc1Cl (stereo not drawn) [SR-01000074712] | 30.27 ± 2.23% | > 14700 nM |  |  | 
15 | 108.00 ± 3.42% | 6.43 | 6.38 | 4.63 | 0.35 | 10.3 nM | 3.29 | 3.24 |  |  |  |  |  |  |  | O=C(CC(C(=O)N1CCc2ccccc21)n1ccnc1)NCC1COc2ccccc2O1 (stereo not drawn) [SR-01000144615] | −9.40 ± 4.48% | > 14100 nM |  |  | 
16 | 78.44 ± 11.98% |  |  |  |  |  |  |  | 1.72 | 1.72 | 0.31 | 0.56 | 2.47 | 2.47 | 2500 nM | Cc1ccc2c(c1)-c1c(cnn1CC(=O)Nc1ccc(F)cc1)CO2 [SR-01000136273] |  |  | −14.31 ± 5.07% |  | > 14100 nM
17 | 90.33 ± 2.09% |  |  |  |  |  |  |  | 2.64 | 2.64 | 0.38 | 1.15 | 4.09 | 4.09 | 527 nM | O=C(CNC(=O)c1ccc(Br)o1)NC1CCCc2ccccc21 (stereo not drawn) [SR-01000064101] |  |  | 10.45 ± 2.67% | > 14900 nM | 
18 | 93.61 ± 11.95% | 4.21 | 4.21 | 1.06 | 0.34 | 184 nM |  |  | 2.32 | 2.32 |  |  |  |  |  | COc1ccc(C(C)N2CC34C=CC(O3)C(C(=O)OCC(C)C)C4C2=O)cc1 (stereo not drawn) [SR-01000114500] |  |  | 4.75 ± 6.36% |  | > 14100 nM
19 | 90.08 ± 9.76% |  |  |  |  |  |  |  | 2.50 | 2.50 | 0.33 | 1.73 | 3.73 | 3.73 | 839 nM | O=C(Cn1ncn2c(cc3sccc32)c1=O)NCCc1ccc(Cl)cc1 [SR-01000099712] |  |  | 7.86 ± 5.01% | > 14100 nM | 
